Laboratory results as given in patent US20240052582A1, “COMPOSTABLE TURF WITH DECOMPOSITION INHIBITOR” (Polytex Sportbelage Produktions-GmbH, priority 2017, published 2024).

Assay: Amount of decomposition inhibitor necessary for a minimum life expectancy of compostable artificial or hybrid turf
Conditions: inhibitor within backing
Description: Due to the wide variety of use case scenarios, stadium architectures and climatic conditions, the amount of decomposition inhibitor that ensures a sufficient life expectancy without unduly delaying the decomposition process is preferably determined empirically.

Oc1cc(Cl)ccc1Oc1ccc(Cl)cc1Cl [Triclosan, 5-chlor-2-(2,4-dichlorphenoxy)-phenol]
Amount of Decomposition inhibitor necessary for a life expectancy of the turf material of at least [. . .] 6 Month (life expectancy at least 6 Month): 0.0005% by % by weight of backing
Amount of Decomposition inhibitor necessary for a life expectancy of the turf material of at least [. . .] 12 Month (life expectancy at least 12 Month): 0.001% by % by weight of backing
